These results are taken from patent US20250282794A1 (CURADEV PHARMA LTD, priority 2022, published 2025).

Molecules are shown by their SMILES.

This assay deals with recombinant full length HPK-1 enzyme (Homo sapiens (Human), UniProt Q92918). Briefly: HPK-1 biochemical enzyme assay (ADP-Glo kinase inhibition). Particulars: recombinant full length HPK-1 6.8 nM, 10 μM ATP, 12.5 μM MBP, 30 mins at 25° C. A digest of the protocol:
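Recombinant full-length human HPK-1 (6.8 nM) incubated 30 min at 25° C. with 10 μM ATP and 12.5 μM swine MBP in 40 mM Tris pH 7.4, 20 mM MgCl2, 50 μM DTT, 0.1 mg/mL BSA. ADP measured by ADP-Glo; IC50 from 10 concentrations, normalized to no-enzyme and vehicle controls.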
On the technique in general: ADP-Glo turns the ADP formed in a reaction into a luminescent signal.

Chain of recombinant full length HPK-1 enzyme (Q92918 whole entry, species assumed): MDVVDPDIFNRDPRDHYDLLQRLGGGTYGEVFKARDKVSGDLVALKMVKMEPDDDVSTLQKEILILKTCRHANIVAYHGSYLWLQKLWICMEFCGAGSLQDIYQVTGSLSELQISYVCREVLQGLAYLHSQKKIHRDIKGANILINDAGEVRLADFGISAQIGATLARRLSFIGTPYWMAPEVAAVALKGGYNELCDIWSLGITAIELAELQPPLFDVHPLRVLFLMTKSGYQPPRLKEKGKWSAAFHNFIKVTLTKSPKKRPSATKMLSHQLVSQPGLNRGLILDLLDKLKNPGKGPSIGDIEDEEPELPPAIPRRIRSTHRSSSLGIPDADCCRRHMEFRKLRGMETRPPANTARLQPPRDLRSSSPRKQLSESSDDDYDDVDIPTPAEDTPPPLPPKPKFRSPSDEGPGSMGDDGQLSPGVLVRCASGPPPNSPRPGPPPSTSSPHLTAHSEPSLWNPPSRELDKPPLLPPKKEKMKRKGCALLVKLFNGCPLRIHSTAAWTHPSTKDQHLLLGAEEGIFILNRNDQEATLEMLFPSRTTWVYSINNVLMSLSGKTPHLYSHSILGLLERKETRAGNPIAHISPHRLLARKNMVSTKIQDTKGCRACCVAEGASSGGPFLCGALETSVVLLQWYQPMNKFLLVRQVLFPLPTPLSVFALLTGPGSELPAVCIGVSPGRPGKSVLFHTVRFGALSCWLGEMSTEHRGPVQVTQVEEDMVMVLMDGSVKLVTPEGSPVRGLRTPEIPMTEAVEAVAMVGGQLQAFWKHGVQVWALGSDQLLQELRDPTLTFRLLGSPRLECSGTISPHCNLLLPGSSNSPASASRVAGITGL

As for `COC(C)(C)C(=O)N1CCN(c2ccc(NC(=O)c3c(Nc4cnc5c(c4C)NCCO5)cc[nH]c3=O)cc2)CC1` [Example 344, N-(4-(4-(2-methoxy-2-methylpropanoyl)piperazin-1-yl)phenyl)-4-((8-methyl-2,3-dihydro-1H-pyrido[2,3-b][1,4]oxazin-7-yl)amino)-2-oxo-1,2-dihydropyridine-3-carboxamide], the IC50 is ≤ 0.01 µM.

On to `Cc1c(Nc2cc[nH]c(=O)c2C(=O)Nc2ccc(C3CCCN(C)C3)cc2)cnc2c1NCCO2` (stereo not shown) [Example 214, 4-((8-methyl-2,3-dihydro-1H-pyrido[2,3-b][1,4]oxazin-7-yl)amino)-N-(4-(1-methylpiperidin-3-yl)phenyl)-2-oxo-1,2-dihydropyridine-3-carboxamide], for which the IC50 is ≤ 0.01 µM.

With `Cc1c(Nc2cc[nH]c(=O)c2C(=O)Nc2ccc3c(c2)C(=O)NCC3)cnc2c1NCCO2` [Example 260, 4-((8-methyl-2,3-dihydro-1H-pyrido[2,3-b][1,4]oxazin-7-yl)amino)-2-oxo-N-(1-oxo-1,2,3,4-tetrahydroisoquinolin-7-yl)-1,2-dihydropyridine-3-carboxamide], the IC50 is 0.1 to 1 µM.

Take `COCCN1CCN(c2ccc(NC(=O)c3c(Nc4cnc5c(c4C)NCC(C)(C)O5)cc[nH]c3=O)cc2)CC1` [Example 173, N-(4-(4-(2-methoxyethyl)piperazin-1-yl)phenyl)-2-oxo-4-((3,3,8-trimethyl-2,3-dihydro-1H-pyrido[2,3-b][1,4]oxazin-7-yl)amino)-1,2-dihydropyridine-3-carboxamide]: the IC50 lay within 0.01 to 0.1 µM.

As for `Cc1c(Nc2cc[nH]c(=O)c2C(=O)Nc2ccc(N3CCN(CCC#N)CC3)cc2)cnc2c1NCCO2` [Example 178, N-(4-(4-(2-cyanoethyl)piperazin-1-yl)phenyl)-4-((8-methyl-2,3-dihydro-1H-pyrido[2,3-b][1,4]oxazin-7-yl)amino)-2-oxo-1,2-dihydropyridine-3-carboxamide], the IC50 is ≤ 0.01 µM.

On to `Cc1c(Nc2cc[nH]c(=O)c2C(=O)Nc2ccc3ncsc3c2)cnc2c1NCCO2` [Example 248, N-(benzo[d]thiazol-6-yl)-4-((8-methyl-2,3-dihydro-1H-pyrido[2,3-b][1,4]oxazin-7-yl)amino)-2-oxo-1,2-dihydropyridine-3-carboxamide], for which the IC50 lay in the range of 0.01 to 0.1 µM.

With `Cc1c(Nc2cc[nH]c(=O)c2C(=O)Nc2ccc(N3CCN(C)CC3)cc2)cnc2c1N(C)CCO2` [Example 93, 4-((1,8-dimethyl-2,3-dihydro-1H-pyrido[2,3-b][1,4]oxazin-7-yl)amino)-N-(4-(4-methylpiperazin-1-yl)phenyl)-2-oxo-1,2-dihydropyridine-3-carboxamide], the IC50 was 0.01 to 0.1 µM.

For the molecule `Cc1c(Nc2cc[nH]c(=O)c2C(=O)Nc2ccc(N3CCCC(C(C)(C)O)C3)cc2)cnc2c1NCCO2` (stereo not shown) [Example 212, N-(4-(3-(2-hydroxypropan-2-yl)piperidin-1-yl)phenyl)-4-((8-methyl-2,3-dihydro-1H-pyrido[2,3-b][1,4]oxazin-7-yl)amino)-2-oxo-1,2-dihydropyridine-3-carboxamide], the IC50 was ≤ 0.01 µM.

For `Cc1c(Nc2cc[nH]c(=O)c2C(=O)Nc2ccc3nc[nH]c3c2)cnc2c1NCCO2` [Example 257, N-(1H-benzo[d]imidazol-6-yl)-4-((8-methyl-2,3-dihydro-1H-pyrido[2,3-b][1,4]oxazin-7-yl)amino)-2-oxo-1,2-dihydropyridine-3-carboxamide], the IC50 fell in the range of 0.01 to 0.1 µM.

`Cc1c(Nc2nc[nH]c(=O)c2C(=O)Nc2ccc(N3CCN(C)CC3)cc2)cnc2c1NCCO2` [Example 98, 4-((8-Methyl-2,3-dihydro-1H-pyrido[2,3-b][1,4]oxazin-7-yl)amino)-N-(4-(4-methylpiperazin-1-yl)phenyl)-6-oxo-1,6-dihydropyrimidine-5-carboxamide]: the IC50 was in the range of 0.01 to 0.1 µM.

As for `Cc1c(Nc2cc[nH]c(=O)c2C(=O)Nc2ccc(N3CCN(C4CCN(C)CC4)CC3)cc2)cnc2c1NCCO2` [Example 292, 4-((8-methyl-2,3-dihydro-1H-pyrido[2,3-b][1,4]oxazin-7-yl)amino)-N-(4-(4-(1-methylpiperidin-4-yl)piperazin-1-yl)phenyl)-2-oxo-1,2-dihydropyridine-3-carboxamide], the IC50 was ≤ 0.01 µM.

On to `Cc1c(Nc2cc[nH]c(=O)c2C(=O)Nc2ccc(CN3CCN(C)CC3)c(C(F)(F)F)c2)cnc2c1NCCO2` [Example 213, 4-((8-methyl-2,3-dihydro-1H-pyrido[2,3-b][1,4]oxazin-7-yl)amino)-N-(4-((4-methylpiperazin-1-yl)methyl)-3-(trifluoromethyl)phenyl)-2-oxo-1,2-dihydropyridine-3-carboxamide], for which the IC50 was 0.01 to 0.1 µM.

For `Cc1c(Nc2cc[nH]c(=O)c2C(=O)Nc2ccc3c(c2)CN(C)CC3)cnc2c1NCCO2` [Example 163, N-(2-Methyl-1,2,3,4-tetrahydroisoquinolin-7-yl)-4-((8-methyl-2,3-dihydro-1H-pyrido[2,3-b][1,4]oxazin-7-yl)amino)-2-oxo-1,2-dihydropyridine-3-carboxamide], the IC50 was 0.01 to 0.1 µM.

Consider `Cc1c(Nc2cc[nH]c(=O)c2C(=O)Nc2ccc(N3CCN(c4nccn4C)CC3)cc2)cnc2c1NCCO2` [Example 366, N-(4-(4-(1-methyl-1H-imidazol-2-yl)piperazin-1-yl)phenyl)-4-((8-methyl-2,3-dihydro-1H-pyrido[2,3-b][1,4]oxazin-7-yl)amino)-2-oxo-1,2-dihydropyridine-3-carboxamide], for which the IC50 is ≤ 0.01 µM.

For `Cc1c(Nc2cc[nH]c(=O)c2C(=O)Nc2ccc(N3CCC(C(C)(C)O)CC3)cc2)cnc2c1NCCO2` [Example 300, N-(4-(4-(2-hydroxypropan-2-yl)piperidin-1-yl)phenyl)-4-((8-methyl-2,3-dihydro-1H-pyrido[2,3-b][1,4]oxazin-7-yl)amino)-2-oxo-1,2-dihydropyridine-3-carboxamide], the half-inhibitory concentration (IC50) was ≤ 0.01 µM.

`Cc1ccc(N2CCN(c3ccc(NC(=O)c4c(Nc5cnc6c(c5C)NCCO6)cc[nH]c4=O)cc3)CC2)cn1` [Example 363, 4-((8-Methyl-2,3-dihydro-1H-pyrido[2,3-b][1,4]oxazin-7-yl)amino)-N-(4-(4-(6-methylpyridin-3-yl)piperazin-1-yl)phenyl)-2-oxo-1,2-dihydropyridine-3-carboxamide]: the IC50 lay within 0.01 to 0.1 µM.

Turning to `Cc1c(Nc2cc[nH]c(=O)c2C(=O)Nc2ccc(N3CCN(Cc4ccn[nH]4)CC3)cc2)cnc2c1NCC(C)O2` (stereo not shown) [Example 193, N-(4-(4-((1H-pyrazol-5-yl)methyl)piperazin-1-yl)phenyl)-4-((3,8-dimethyl-2,3-dihydro-1H-pyrido[2,3-b][1,4]oxazin-7-yl)amino)-2-oxo-1,2-dihydropyridine-3-carboxamide], the IC50 is ≤ 0.01 µM.

As for `Cc1c(Nc2cc[nH]c(=O)c2C(=O)Nc2ccc(N3CCN(C(=O)C(C)C)[C@H](C)C3)cc2)cnc2c1NCCO2` [Example 349, (R)-N-(4-(4-isobutyryl-3-methylpiperazin-1-yl)phenyl)-4-((8-methyl-2,3-dihydro-1H-pyrido[2,3-b][1,4]oxazin-7-yl)amino)-2-oxo-1,2-dihydropyridine-3-carboxamide], the IC50 is ≤ 0.01 µM.

On to `Cc1c(Nc2cc[nH]c(=O)c2C(=O)Nc2ccc(S(C)(=O)=O)cc2)cnc2c1NCCO2` [Example 223, 4-((8-methyl-2,3-dihydro-1H-pyrido[2,3-b][1,4]oxazin-7-yl)amino)-N-(4-(methylsulfonyl)phenyl)-2-oxo-1,2-dihydropyridine-3-carboxamide], for which the IC50 fell in the range of 0.01 to 0.1 µM.

For `Cc1nc2ccc(NC(=O)c3c(Nc4cnc5c(c4C)NCCO5)cc[nH]c3=O)cc2s1` [Example 249, 4-((8-methyl-2,3-dihydro-1H-pyrido[2,3-b][1,4]oxazin-7-yl)amino)-N-(2-methylbenzo[d]thiazol-6-yl)-2-oxo-1,2-dihydropyridine-3-carboxamide], the IC50 was 0.01 to 0.1 µM.

Consider `Cc1c(Nc2cc[nH]c(=O)c2C(=O)Nc2ccc(N3CCN(C)CC3)c(C(=O)O)c2)cnc2c1NCCO2` [Example 215, 5-(4-((8-methyl-2,3-dihydro-1H-pyrido[2,3-b][1,4]oxazin-7-yl)amino)-2-oxo-1,2-dihydropyridine-3-carboxamido)-2-(4-methylpiperazin-1-yl)benzoic acid], for which the IC50 was in the range of 0.1 to 1 µM.

With `Cc1c(Nc2cc[nH]c(=O)c2C(=O)Nc2ccc(N3CCN(C)CC3)c(C#N)c2)cnc2c1NCC(C)O2` (stereo not shown) [Example 191, N-(3-cyano-4-(4-methylpiperazin-1-yl)phenyl)-4-((3,8-dimethyl-2,3-dihydro-1H-pyrido[2,3-b][1,4]oxazin-7-yl)amino)-2-oxo-1,2-dihydropyridine-3-carboxamide], the IC50 lay within 0.01 to 0.1 µM.

`Cc1c(Nc2cc[nH]c(=O)c2C(=O)Nc2ccc(N3CCN(c4ncn(C)n4)CC3)cc2)cnc2c1NCCO2` [Example 339, N-(4-(4-(1-methyl-1H-1,2,4-triazol-3-yl)piperazin-1-yl)phenyl)-4-((8-methyl-2,3-dihydro-1H-pyrido[2,3-b][1,4]oxazin-7-yl)amino)-2-oxo-1,2-dihydropyridine-3-carboxamide]: the IC50 was ≤ 0.01 µM.

In the case of `CCC(C)C(=O)N1CCN(c2ccc(NC(=O)c3c(Nc4cnc5c(c4C)NCCO5)cc[nH]c3=O)cc2)CC1` (stereo not shown) [Example 333, 4-((8-methyl-2,3-dihydro-1H-pyrido[2,3-b][1,4]oxazin-7-yl)amino)-N-(4-(4-(2-methylbutanoyl)piperazin-1-yl)phenyl)-2-oxo-1,2-dihydropyridine-3-carboxamide], the IC50 is ≤ 0.01 µM.

Regarding `CCC1CNc2c(ncc(Nc3cc[nH]c(=O)c3C(=O)Nc3ccc(N4CCN(C)CC4)cc3)c2C)O1` (stereo not shown) [Example 188, 4-((3-ethyl-8-methyl-2,3-dihydro-1H-pyrido[2,3-b][1,4]oxazin-7-yl)amino)-N-(4-(4-methylpiperazin-1-yl)phenyl)-2-oxo-1,2-dihydropyridine-3-carboxamide], the IC50 is 0.01 to 0.1 µM.

What is called IC50 is the concentration that gives 50% inhibition.
